Experiment [1] has as its system HeLa. Kind of experiment: Cytotoxicity against human HeLa cells assessed as inhibition of cell growth incubated for 72 hrs by resazurin dye based assay. Type of experiment: functional. (In general: Resazurin is reduced to fluorescent resorufin, in cell work by metabolically active cells.)
The target of experiment [2] is T1, Tubulin (Homo sapiens) (UniProt P68371+Q9H4B7+P0DPH7+P68366+Q13509+Q71U36+P04350+Q3ZCM7+P07437+P68363+Q9BQE3+Q6PEY2+Q13885+Q9BVA1+Q9BUF5). Nature of the experiment: Disruption of microtubules in human HMF3A cells assessed as increase in nucleus size at 5 uM measured after 4 hrs by immunostaining based confocal microscopic analysis. Type of experiment: cell-based.

In experiment [3] the target is T1, Tubulin (Homo sapiens). Kind of experiment: Disruption of microtubules in human HMF3A cells assessed as increase in cell size at 5 uM measured after 4 hrs by immunostaining based confocal microscopic analysis.
In experiment [4] the target is T1, Tubulin (Homo sapiens). Kind of experiment: Disruption of microtubules in human HMF3A cells at 5 uM measured after 1 hr by immunostaining based confocal microscopic analysis. The format is cell-based.

Activity calls are given as the source filed them. The calls are words filed in the database; no cut-off is given here.

By IC50 is commonly meant the concentration that gives 50% inhibition.

Turning to `N#Cc1ccc2[nH]c(NCc3ccco3)nc2c1`, the concentration for half-maximal inhibition (IC50) in experiment [1] is above 80 µM.

Regarding `c1ccc(Oc2ccc3[nH]c(NCc4ccco4)nc3c2)cc1`, the IC50 in experiment [1] is 0.94 µM. The outcome in experiment [2], in experiment [3] and in experiment [4] was Active.

Consider `COc1ccc2[nH]c(NCc3ccco3)nc2c1`, for which the IC50 in experiment [1] worked out at 10.1 µM.

Take `FC(F)(F)c1ccc2[nH]c(NCc3ccco3)nc2c1`: the half-maximal inhibitory concentration (IC50) in experiment [1] is 9.9 µM.

`Cc1ccc(CNc2nc3ccccc3[nH]2)o1`: the half-maximal inhibitory concentration (IC50) in experiment [1] was 22.3 µM.

Turning to `COC(=O)c1ccc2[nH]c(NCc3ccco3)nc2c1`, the IC50 in experiment [1] amounted to 7 µM.

With `c1coc(CNc2nc3ccccc3[nH]2)c1`, the IC50 in experiment [1] turned out to be 54 µM.

On to `Cc1ccc2[nH]c(NCc3ccco3)nc2c1`, for which the concentration for half-maximal inhibition (IC50) in experiment [1] came to 5.6 µM.

Consider `Clc1ccc2[nH]c(NCc3ccco3)nc2c1`, for which the half-inhibitory concentration (IC50) in experiment [1] worked out at 4.5 µM.

For the origin of these results see ChEMBL document CHEMBL5104165, “Novel fragment-derived colchicine-site binders as microtubule-destabilizing agents” (Eur J Med Chem, 2022).
